Experimental data from US20090042969A1, “Use of Specific Trifluoromethyl Ketones for Preventing and Treating Pancreatitis” (priority 2005, published 2009).
Entries after “also recorded” stand apart in the source; their conditions may differ. Read-outs that look alike come from different tables or passages of the source.

Legend:
[1] = tested on: caerulein-induced pancreatitis; experiment: Serum amylase activity (hyperamylasemia) in caerulein-induced pancreatitis; type: in vivo, rat; conditions: oral administration; four and twelve hours of pancreatitis
Method: (§1) Male Wistar rats (140 to 250 g) were anesthetized with pentobarbital (30 mg/kg). A cannula was placed in the jugular vein, and a supramaximal concentration of caerulein (10 μg/kg per hour) was administered to the animals by infusion for four and twelve hours. […] Animals which received a saline solution as infusion and were fed with compound II through a tube served as control. Each treatment group consisted of five animals. After the exsanguination under ether anesthesia, the pancreas was quickly removed and freed of fat, and tissue blocks were fixed in 5% paraformaldehyde for the histology in paraffin-embedded sections. The largest portion of the pancreas was frozen in liquid nitrogen and stored at −80° C. for later protein analysis and for detection of the enzyme activity.
(§2) The animals were sacrificed after four and twelve hours, and pancreatic tissue, serum and lung tissue were collected for further analyses (see FIG. 2).

[2] = target: T1, cathepsin B (Homo sapiens, UniProt P07858); experiment: In vitro inhibitor specificity: cathepsin B activity; type: biochemical; conditions: compound II 1 nM to 1 mM
T1 construct: This commercial product was purified from human liver by HPLC; purchased Calbiochem; host or cells: purified from human liver

[3] = tested on: caerulein-induced pancreatitis; experiment: Myeloperoxidase activity and morphology of the lung during caerulein-induced pancreatitis; type: in vivo, rat
Method: as §1, §2
Pancreatitis influences not only the pancreas but also leads to a systemic inflammatory response which affects other organs such as the kidneys or the lung. […] The morphological differences in the lung tissues during caerulein-induced pancreatitis consisted of accumulations of alveolar fluid and a progressive thickening, hyperemia and neutrophil infiltration of the intraalveolar tissue. […]

[4] = tested on: caerulein-induced pancreatitis; experiment: Myeloperoxidase activity in pancreatic homogenates in caerulein-induced pancreatitis; type: in vivo, rat; conditions: oral 240 mg/kg per day
Method: as §1, §2
To measure the myeloperoxidase (MPO) activity, the tissue was thawed and homogenized on ice in 20 mM potassium phosphate buffer (pH 7.4) and centrifuged at 20 000 g at 4° C. for 10 minutes. The pellet was resuspended in […] potassium phosphate buffer (pH 6.0) which contained 0.5% cethyltrimethylammonium bromide. […]
The original increase in the absorption at 450 nm was measured at room temperature using a Dynatech MR 5000 ELISA reader. […]

[5] = tested on: neutrophil elastase; experiment: Inhibition of neutrophil elastase after oral or intravenous administration; type: in vivo
[6] = target: T2, pancreatic elastase (Sus scrofa, UniProt P00772); experiment: In vitro inhibitor specificity: pancreatic elastase activity; type: biochemical, porcine
T2 construct: was purified from porcine pancreas; purchased Calbiochem; host or cells: purified from porcine pancreas
Method: (§3) Caerulein was obtained from Pharmacia, Freiburg, Germany. Human neutrophil elastase was purchased from Calbiochem (San Diego, Calif., U.S.A.). This commercial product was purified from human serum by HPLC (protein concentration >20 units/mg of protein specific activity; in 50 mM sodium acetate pH 5.5 and 200 mM sodium chloride; purity >95%). Human myeloperoxidase was purchased from Calbiochem and purified from blood by HPLC (1 mg/10 ml protein concentration, 150 to 200 units mg protein specific protein activity, in 100 mM sodium chloride, 50 mM sodium acetate, purity >95%). Porcine pancreatic elastase was purchased from Calbiochem and was purified from porcine pancreas. […]
(§4) The trypsin activity (10 mU), myeloperoxidase activity (100 mU) and the neutrophil elastase activity (10 mU) was determined by using the specific fluorogenic substrates [CBZ-Ile-Pro-Arg]2-rhodamine 110 or [CBZ-Ala4]-aminomethylcoumarin (AMC) in 100 mM tris-HCl buffer (pH 8.0), which contained 5 mM CaCl2, 10 μM substrate (final concentration) and 10 mU of bovine trypsin in a volume of 150 μl, at an excitation wavelength of 485 nm and an emission wavelength of 530 nm or an excitation wavelength of 350 nm and an emission wavelength of 460 nm at 37° C. The initial rates of the substrate hydrolysis were measured as arbitrary fluorescence units per minute. […]

[7] = tested on: caerulein-induced pancreatitis; experiment: Pancreatic water content (edema) in caerulein-induced pancreatitis; type: in vivo, rat; conditions: oral 240 mg/kg per day
Method: as §1, §2
Determination of the pancreatic water content: the water content of the pancreas was determined by comparing the freshly obtained tissue (wet weight) with the weight of the same sample after drying (dry weight). In order to ensure complete drying, the tissue was incubated at […] for 24 hours, a constant weight being reached. The results were represented as percentage of the difference between the wet weight and the dry weight divided by the original wet weight.

[8] = target: T3, human neutrophil elastase (Homo sapiens, UniProt P08246); experiment: In vitro inhibitor specificity: neutrophil elastase activity; type: biochemical
T3 construct: This commercial product was purified from human serum by HPLC; purchased Calbiochem; host or cells: purified from human serum
T3 sequence (P08246 30-267): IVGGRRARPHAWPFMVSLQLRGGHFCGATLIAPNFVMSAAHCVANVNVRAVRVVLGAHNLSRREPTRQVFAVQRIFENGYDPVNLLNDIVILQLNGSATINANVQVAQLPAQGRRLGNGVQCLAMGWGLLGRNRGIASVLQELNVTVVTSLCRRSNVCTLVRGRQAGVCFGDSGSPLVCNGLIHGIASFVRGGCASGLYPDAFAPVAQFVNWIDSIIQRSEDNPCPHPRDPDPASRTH
Method: Human neutrophil elastase was purchased from Calbiochem (San Diego, Calif., U.S.A.). This commercial product was purified from human serum by HPLC (protein concentration >20 units/mg of protein specific activity; in 50 mM sodium acetate pH 5.5 and 200 mM sodium chloride; purity >95%). […] Porcine pancreatic elastase was purchased from Calbiochem and was purified from porcine pancreas. The specific activity was 50 units/mg of protein in 50 mM potassium phosphate buffer, pH 7.0. […]

[9] = Pharmacokinetics (half-life, AUC, bioavailability); design: species or system rats, hamsters and dogs; conditions: rat, hamster, dog, in vivo
[10] = target: T4, myeloperoxidase (Homo sapiens, UniProt P05164); experiment: In vitro inhibitor specificity: myeloperoxidase activity; type: biochemical; conditions: compound II 1 nM to 1 mM
T4 construct: purified from blood by HPLC; purchased Calbiochem; host or cells: purified from blood
Method: as §3, §4

[11] = target: T5, cathepsin L (Homo sapiens, UniProt P07711); experiment: In vitro inhibitor specificity: cathepsin L activity; type: biochemical; conditions: compound II 1 nM to 1 mM
T5 construct: prepared from human liver; purchased Calbiochem; host or cells: prepared from human liver

[12] = target: T6, trypsin (Bos taurus, UniProt P00760); experiment: In vitro inhibitor specificity: trypsin activity; type: biochemical, bovine; conditions: compound II 1 nM to 1 mM
T6 sequence (P00760 24-246): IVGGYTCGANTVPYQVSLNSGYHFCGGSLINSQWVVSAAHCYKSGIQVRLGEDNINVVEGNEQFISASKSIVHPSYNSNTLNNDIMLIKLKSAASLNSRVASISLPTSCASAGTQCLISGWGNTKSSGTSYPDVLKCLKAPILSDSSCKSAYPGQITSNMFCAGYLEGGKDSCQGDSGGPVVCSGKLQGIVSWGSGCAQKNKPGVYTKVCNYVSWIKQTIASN
Method: The trypsin activity (10 mU), myeloperoxidase activity (100 mU) and the neutrophil elastase activity (10 mU) was determined by using the specific fluorogenic substrates [CBZ-Ile-Pro-Arg]2-rhodamine 110 or [CBZ-Ala4]-aminomethylcoumarin (AMC) in 100 mM tris-HCl buffer (pH 8.0), which contained 5 mM CaCl2, 10 μM substrate (final concentration) and 10 mU of bovine trypsin in a volume of 150 μl, at an excitation wavelength of 485 nm and an emission wavelength of 530 nm or an excitation wavelength of 350 nm and an emission wavelength of 460 nm at 37° C. The initial rates of the substrate hydrolysis were measured as arbitrary fluorescence units per minute. The cathepsin B activity (100 mU) and cathepsin L activity (100 mU) were then determined in 0.25 M sodium acetate buffer (pH 5.0), which contained 2 mM EDTA 1 mM DTT, 10 μM of the specific substrate CBZ-[Arg]2-aminomethylcoumarin or 10 μM [CBZ-Phe-Arg]-rhodamine 110 (final concentration) in a final volume of 150 μl, at an excitation wavelength of 350 nm and an emission wavelength of 460 nm or 485 nm and an emission wavelength of 530 nm at 37° C.
The results were calculated in percent of the initial enzyme activity (Kukor et al., 2002).

[13] = tested on: caerulein-induced pancreatitis; experiment: Morphological damage of the pancreas in caerulein-induced pancreatitis; type: in vivo, rat
Method: as §1, §2

[14] = compound II together with caerulein

T4 sequence (P05164 279-745 limits assumed): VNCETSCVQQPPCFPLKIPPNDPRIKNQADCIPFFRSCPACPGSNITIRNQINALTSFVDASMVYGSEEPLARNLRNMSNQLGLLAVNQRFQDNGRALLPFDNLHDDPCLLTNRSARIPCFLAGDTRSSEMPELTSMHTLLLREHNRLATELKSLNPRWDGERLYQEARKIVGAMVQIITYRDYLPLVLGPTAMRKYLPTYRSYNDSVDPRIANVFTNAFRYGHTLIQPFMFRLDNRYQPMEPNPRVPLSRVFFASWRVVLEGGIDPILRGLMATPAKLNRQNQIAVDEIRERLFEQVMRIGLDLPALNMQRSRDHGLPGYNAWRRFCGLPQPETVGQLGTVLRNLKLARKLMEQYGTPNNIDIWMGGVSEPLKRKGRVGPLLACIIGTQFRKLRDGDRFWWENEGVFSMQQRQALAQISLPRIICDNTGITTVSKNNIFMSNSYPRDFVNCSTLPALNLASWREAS
T4 sequence (P05164 165-273 limits assumed): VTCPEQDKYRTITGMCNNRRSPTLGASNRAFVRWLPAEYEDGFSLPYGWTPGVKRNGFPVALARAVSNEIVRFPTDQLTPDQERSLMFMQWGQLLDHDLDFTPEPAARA
T2 sequence (P00772 27-266): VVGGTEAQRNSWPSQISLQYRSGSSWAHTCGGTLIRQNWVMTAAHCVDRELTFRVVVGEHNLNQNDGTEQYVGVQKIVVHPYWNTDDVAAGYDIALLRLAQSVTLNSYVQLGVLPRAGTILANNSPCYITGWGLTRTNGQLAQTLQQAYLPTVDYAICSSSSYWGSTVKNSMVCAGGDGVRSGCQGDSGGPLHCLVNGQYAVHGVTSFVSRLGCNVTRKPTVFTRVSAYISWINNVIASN
T5 sequence (P07711 114-333): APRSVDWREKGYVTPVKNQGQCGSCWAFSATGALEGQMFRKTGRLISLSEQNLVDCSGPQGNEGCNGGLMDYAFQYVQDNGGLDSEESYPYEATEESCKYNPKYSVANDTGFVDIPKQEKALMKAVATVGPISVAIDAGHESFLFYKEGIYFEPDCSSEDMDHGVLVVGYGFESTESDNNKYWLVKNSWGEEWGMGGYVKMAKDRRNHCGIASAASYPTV

- influence on cathepsin B activity [2]: not significantly influenced
- influence on cathepsin B activity ([2]; listed as Compound II): does not inhibit
- Ki [6]: 0.2 µM
- IC50 ([6]; FIG. 1): 1 µM
- change in the water content of the pancreas ([7]; compound II alone (control 2), no caerulein): did not lead to a significant change
- inhibitory activity for human neutrophil elastase by comparison with pancreatic elastase [8]: five times higher
- AUC ([9]; intravenous, read-out: intravenous AUC): 1.36 to 3.18 µg·h/mL
- bioavailability ([9]; oral versus intravenous AUC, read-out: percentage bioavailability): 26 to 82%
- AUC ([9]; oral, read-out: oral bioavailability (AUC)): 0.355 to 1.4 µg·h/mL
- half-life ([9]; rats, hamsters and dogs, read-out: biological half-life): 0.82 to 2 h
- influence on myeloperoxidase activity ([10]; listed as Compound II): does not inhibit
- influence on cathepsin L activity [11]: not significantly influenced
- influence on cathepsin L activity ([11]; listed as Compound II): does not inhibit
- influence on trypsin activity [12]: not significantly influenced
- influence on trypsin activity ([12]; listed as Compound II): does not inhibit
Compound: COc1ccc(C(=O)N[C@H](C(=O)N2CCC[C@H]2C(=O)N[C@H](C(=O)C(F)(F)F)C(C)C)C(C)C)cc1 [compound II]
- amylase activity in serum [1]: significantly reduced
- morphological differences in lung tissue (alveolar fluid, thickening, hyperemia, neutrophil infiltration) [3]: reduced
- MPO activity in lung tissue ([3]; effect greater after twelve than four hours): significant reduction
- reduction in MPO activity in pancreatic tissue [4]: more than 50%
- dose to inhibit 50% of the enzyme activity ([5]; intravenous administration): 0.59 mg/kg of body weight
- dose to inhibit 50% of the enzyme activity ([5]; oral administration): 4.9 mg/kg of body weight
- inhibition of neutrophil elastase ([5]; oral administration of 10 mg/kg of body weight): 84%
- formation of pancreatic edemas (water content) ([7]; four and twelve hours after starting caerulein infusion): significant reduction
- influence on myeloperoxidase activity [10]: not significantly influenced; also recorded: excluded
- morphological changes like those observed in acute pancreatitis ([13]; compound II alone, no caerulein): did not lead to any morphological changes
- development of the interstitial edema and the intracellular vacuolization [13, 14]: prevented
- number of infiltrating inflammatory cells in pancreas [13, 14]: greatly reduced
